# Legend:
# [1] = system: T-Rex 293 cell line SC3 cells having increased expression of androgen receptor protein due to exposure to doxycycline; experiment: Cellular growth inhibition, T-Rex 293 SC3 cells with doxycycline (androgen receptor induced), CellTiter-Glo; format: cell-based; conditions: 72 h, T-Rex 293 SC3 cells with 10 ng/mL doxycycline (increased androgen receptor expression)
# In short: (§1)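 SC3 is a T-Rex 293 clone stably transfected with wild-type androgen receptor in pcDNA4/TO, inducible by 10 ng/mL doxycycline. Cells were grown in phenol red-free DMEM with 10% charcoal-dextran FBS, with or without doxycycline, dosed 24 h after seeding (0.5% DMSO) for 72 h. Viability was read by CellTiter-Glo 2.0 luminescence and GI50 obtained from four-parameter fits.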
# [2] = system: T-Rex 293 cell line SC3 cells lacking increased expression of androgen receptor protein; experiment: Cellular growth inhibition, T-Rex 293 SC3 cells without doxycycline, CellTiter-Glo; format: cell-based; conditions: 72 h, T-Rex 293 SC3 cells not exposed to doxycycline, CellTiter-Glo 2.0
# In short: as §1
# VCaP cells = experiment: Cellular growth inhibition assay for VCaP cells, CellTiter-Glo; format: cell-based, human; conditions: Homo sapiens, VCaP, 72 h, 72 hours treatment, CellTiter-Glo 2.0
# In short: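 GI50 values come from four-parameter curve fits of luminescence data normalized to a zero baseline. Compound, in medium with 0.5% DMSO, was added one day after plating and left for 72 h before CellTiter-Glo 2.0 addition.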
# T47D cells = experiment: Cellular growth inhibition assay for T47D cells, CellTiter-Glo; format: cell-based, human; conditions: Homo sapiens, T47D, 72 h, 72 hours treatment, CellTiter-Glo 2.0 cell viability
# In short: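 Cells are plated at 3000/well and allowed 24 h before treatment. Test compound in medium containing 0.5% DMSO is then added, with DMSO-only wells as negative control, and plates are incubated 72 h at 37 °C. ATP luminescence (CellTiter-Glo 2.0) is then fitted to four parameters to derive GI50.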
SMILES,GI50 [1],GI50 [2],GI50 (VCaP cells),GI50 (T47D cells)
Cc1sc2c(c1C)C(c1ccc(N3CCC[C@H](C(=O)N4CCCC4c4ncc(C(=O)N[C@H]5C(C)(C)[C@H](Oc6ccc(C#N)c(Cl)c6)C5(C)C)cn4)C3)cc1)=N[C@@H](Cc1ncco1)c1nnc(C)n1-2 (some centres unmarked) [Compound I-314],< 0.5 µM,> 3 µM,< 0.5 µM,< 0.5 µM
Cc1sc2c(c1C)C(c1ccc(C#CC3CC4(C3)CN(c3ncc(C(=O)N[C@H]5C(C)(C)[C@H](Oc6ccc(C#N)c(Cl)c6)C5(C)C)cn3)C4)cc1)=NC1(CC1)c1nnc(C)n1-2 [Compound I-462],< 0.5 µM,0.5 to 1.5 µM,< 0.5 µM,0.5 to 1.5 µM
Cc1sc2c(c1C)C(c1ccc(CCCOC3CCN(c4ncc(C(=O)N[C@H]5C(C)(C)[C@H](Oc6ccc(C#N)c(Cl)c6)C5(C)C)cn4)CC3)cc1)=N[C@@H](Cc1ccncc1)c1nnc(C)n1-2 [Compound I-215],< 0.5 µM,< 0.5 µM,< 0.5 µM,< 0.5 µM
Cc1sc2c(c1C)C(c1ccc(C(=O)N3CCN(CCc4ncc(C(=O)N[C@H]5C(C)(C)[C@H](Oc6ccc(C#N)c(Cl)c6)C5(C)C)cn4)CC3)cc1)=N[C@H](Cc1ncco1)c1nnc(C)n1-2 [Compound I-357],0.5 to 1.5 µM,> 3 µM,> 3 µM,1.5 to 3 µM
Cc1sc2c(c1C)C(c1ccc(C3CC(N4CCN(c5ncc(C(=O)N[C@H]6C(C)(C)[C@H](Oc7ccc(C#N)c(Cl)c7)C6(C)C)cn5)CC4)C3)cc1)=N[C@@H](Cc1ncco1)c1nnc(C)n1-2 (some centres unmarked) [Compound I-475],< 0.5 µM,0.5 to 1.5 µM,< 0.5 µM,< 0.5 µM
Cc1sc2c(c1C)C(c1ccc(N3CCC4(CC3)CCN(c3ncc(C(=O)N[C@H]5C(C)(C)[C@H](Oc6ccc(C#N)c(Cl)c6)C5(C)C)cn3)CC4)cc1)=N[C@@H](Cc1ncco1)c1nnc(C)n1-2 [Compound I-645],< 0.5 µM,> 3 µM,< 0.5 µM,< 0.5 µM
Cc1sc2c(c1C)C(c1ccc(N3CCCC4(CCN(c5ncc(C(=O)N[C@H]6C(C)(C)[C@H](Oc7ccc(C#N)c(Cl)c7)C6(C)C)cn5)CC4)C3)cc1)=NC(Cc1ncco1)c1nnc(C)n1-2 (some centres unmarked) [Compound I-637],< 0.5 µM,> 3 µM,< 0.5 µM,< 0.5 µM
Cc1sc2c(c1C)C(c1ccc(Oc3ncc(C(=O)N[C@H]4C(C)(C)[C@H](Oc5ccc(C#N)c(Cl)c5)C4(C)C)cn3)cc1)=N[C@@H](Cc1ncco1)c1nnc(C)n1-2 [Compound I-205],< 0.5 µM,0.5 to 1.5 µM,< 0.5 µM,0.5 to 1.5 µM
[2H]C([2H])(c1ccc(C2=N[C@@H](Cc3ncco3)c3nnc(C)n3-c3sc(C)c(C)c32)cc1)N1CC[C@@]2(CCCN(c3ncc(C(=O)N[C@H]4C(C)(C)[C@H](Oc5ccc(C#N)c(Cl)c5)C4(C)C)cn3)C2)C1 [Compound I-433],< 0.5 µM,< 0.5 µM,< 0.5 µM,0.5 to 1.5 µM
Cc1sc2c(c1C)C(c1ccc(-c3csnc3OC3CCN(c4ncc(C(=O)N[C@H]5C(C)(C)[C@H](Oc6ccc(C#N)c(Cl)c6)C5(C)C)cn4)CC3)cc1)=N[C@@H](Cc1ncco1)c1nnc(C)n1-2 [Compound I-431],< 0.5 µM,> 3 µM,< 0.5 µM,> 3 µM
CCNC(=O)C[C@@H]1N=C(c2ccc(N3CC(N(C(C)C)C4CN(c5ncc(C(=O)N[C@H]6C(C)(C)[C@H](Oc7ccc(C#N)c(Cl)c7)C6(C)C)cn5)C4)C3)cc2)c2c(sc(C)c2C)-n2c(C)nnc21 [Compound I-125],< 0.5 µM,0.5 to 1.5 µM,< 0.5 µM,0.5 to 1.5 µM
Cc1sc2c(c1C)C(c1ccc(C[C@H]3CCCN(c4ncc(C(=O)N[C@H]5C(C)(C)[C@H](Oc6ccc(C#N)c(Cl)c6)C5(C)C)cn4)C3)cc1)=N[C@@H](Cc1ncco1)c1nnc(C)n1-2 [Compound I-297],< 0.5 µM,0.5 to 1.5 µM,< 0.5 µM,< 0.5 µM
Cc1sc2c(c1C)C(c1ccc(OC[C@@H]3CCCN(c4ncc(C(=O)N[C@H]5C(C)(C)[C@H](Oc6ccc(C#N)c(Cl)c6)C5(C)C)cn4)C3)cc1)=N[C@@H](Cc1ncco1)c1nnc(C)n1-2 [Compound I-254],< 0.5 µM,< 0.5 µM,< 0.5 µM,< 0.5 µM
Cc1sc2c(c1C)C(c1ccc(COC3CCN(c4ncc(C(=O)N[C@H]5C(C)(C)[C@H](Oc6ccc(C#N)c(Cl)c6)C5(C)C)cn4)CC3)cc1)=N[C@@H](C)c1nnc(C)n1-2 [Compound I-347],> 3 µM,> 3 µM,> 3 µM,> 3 µM

# From patent publication US20260062422A1 (Halda Therapeutics OpCo, Inc., priority 2022, published 2026)
